Assay [1] concerns Mycobacterium tuberculosis. The experiment in a line: Antimycobacterial activity against Mycobacterium tuberculosis HN878 assessed as inhibition of mycobacterial growth incubated for 5 days. In kind it is functional, organism-based. To be noted: HN878, 120 h.
In assay [2] the test system is Mycolicibacterium smegmatis. The experiment in a line: Antimycobacterial activity against Mycobacterium smegmatis assessed as inhibition of mycobacterial growth incubated for 48 hrs. In kind it is functional, organism-based.
Another assay deals with Cell membrane. The experiment in a line: Uncoupling activity in Escherichia coli inverted membrane vesicles assessed as collapse of pH gradient by measuring increase in ACMA fluorescence intensity by fluorometric analysis. The assay is classed as subcellular.
Assay [3] concerns Mycolicibacterium smegmatis. The experiment in a line: Rescue fold, ratio of IC50 for antimycobacterial activity against Mycobacterium smegmatis in presence of 50 uM undecaprenyl phosphate to IC50 for antimycobacterial activity against Mycobacterium smegmatis. In kind it is functional.
Assay [4] deals with Mycolicibacterium smegmatis. The experiment in a line: Antimycobacterial activity against Mycobacterium smegmatis assessed as inhibition of mycobacterial growth incubated for 48 hrs in presence of 50 uM undecaprenyl phosphate. In kind it is functional, organism-based.
Assay [5] has as its system Mycobacterium tuberculosis. The experiment in a line: Antimycobacterial activity against Mycobacterium tuberculosis HN878 assessed as inhibition of mycobacterial growth incubated for 5 days in presence of 50 uM undecaprenyl phosphate. In kind it is functional, organism-based. As to conditions: HN878, 120 h.
Assay [6] addresses T1, Undecaprenyl-diphosphatase (Escherichia coli (strain K12), UniProt P60932).
T1 sequence (P60932 whole entry): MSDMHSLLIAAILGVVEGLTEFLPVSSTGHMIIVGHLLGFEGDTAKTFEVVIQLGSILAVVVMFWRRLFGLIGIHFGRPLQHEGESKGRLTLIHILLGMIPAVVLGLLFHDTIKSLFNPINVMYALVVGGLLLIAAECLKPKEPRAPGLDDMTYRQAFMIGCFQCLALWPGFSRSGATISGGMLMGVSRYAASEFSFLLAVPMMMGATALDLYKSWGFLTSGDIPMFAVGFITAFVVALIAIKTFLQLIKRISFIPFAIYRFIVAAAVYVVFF
The assay can be described thus: Inhibition of UppP in Escherichia coli using FPP as substrate pretreated for 20 mins followed by FPP addition and measured after 60 mins by malachite green based assay.

Assay [7] concerns Mycolicibacterium smegmatis. The assay can be described thus: Antimycobacterial activity against Mycobacterium smegmatis assessed as inhibition of mycobacterial growth incubated for 48 hrs in presence of 50 uM Upp. The assay is classed as functional, organism-based.
In assay [8] the test system is Mycolicibacterium smegmatis. The experiment in a line: Antimycobacterial activity against Mycobacterium smegmatis assessed as inhibition of mycobacterial growth incubated for 48 hrs in presence of 50 uM menaquinone-4. The assay is classed as functional, organism-based.
Assay [9] has as its system Mycolicibacterium smegmatis. The assay can be described thus: Rescue fold, ratio of IC50 for antimycobacterial activity against Mycobacterium smegmatis in presence of 100 uM menaquinone-4 to IC50 for antimycobacterial activity against Mycobacterium smegmatis. In kind it is functional.
Assay [10] has as its system Mycolicibacterium smegmatis. The experiment in a line: Rescue fold, ratio of IC50 for antimycobacterial activity against Mycobacterium smegmatis in presence of 100 uM menaquinone-7 to IC50 for antimycobacterial activity against Mycobacterium smegmatis. The assay is classed as functional.

The IC50 is the point on the concentration scale where inhibition reaches its midpoint.

Turning to `CC(C)=CCCC1(C)CC=NO1` (stereo not drawn), the values for the IC50 (in assay [1]; in [2]; in the assay on Cell membrane) were above 25 µM, above 500 µM and above 1000 µM, respectively.
Turning to `CC(C)=CCC/C(C)=C/C(C)(C)NCCNC1C2CC3CC(C2)CC1C3` (stereo not drawn), in [3], the “Ratio IC50” value was 23. Also, the IC50 in [4] turned out to be 43 µM; in assay [5], 8.7 µM; in [1], 0.61 µM; in [6], 37 µM; in assay [2] it was 1.9 µM; with Cell membrane, 1.1 µM.
As for `CC(C)=CCC/C(C)=C/COCCNC1C2CC3CC(C2)CC1C3` (stereo not drawn), the “Ratio IC50” value in [3] is 1.3. For the same compound, the IC50 in [4] came out at 9.8 µM; in assay [5] it was 2.8 µM; in assay [1], 1.3 µM; in [6], 91 µM; in assay [2], 7.3 µM; in the assay with Cell membrane it was 55 µM.
Consider `CC(C)=CCC/C(C)=C/C=N\O`, for which the IC50 in assay [1] is above 25 µM; in assay [2], above 500 µM; with Cell membrane it was above 1000 µM.
`c1ccc(CCNC2CCCc3c2[nH]c2ccc(C4CCCCC4)cc32)cc1` (stereo not drawn): the values for the IC50 in assay [7], in assay [4] and in assay [2] were 14 µM, 56 µM and 14 µM, respectively.
In the case of `NCCNC1C2CC3CC(C2)CC1C3` (stereo not drawn), the IC50 in assay [1] was above 25 µM; in assay [2], above 500 µM; in the assay on Cell membrane, 130 µM.
`CC(C)=CCC/C(C)=C/CNCCNC1C2CC3CC(C2)CC1(O)C3` (stereo not drawn): the “Ratio IC50” value in [3] amounted to 3. Further, the half-maximal inhibitory concentration (IC50) in assay [4] came out at 15 µM; in [1] it was 0.81 µM; in [2], 5 µM; with Cell membrane, 9.1 µM.
As to `CC(C)=CCC/C(C)=C/CCNCCNC1C2CC3CC1CC(F)(C3)C2` (stereo not drawn), the “Ratio IC50” value in assay [3] is recorded as 4.8. Further, the IC50 was 38 µM in assay [4]; 8.8 µM in [5]; 1.5 µM in assay [1]; 153 µM in [6]; 8 µM in [2]; 5.5 µM in the assay with Cell membrane.
In the case of `CCCCc1ccc(-c2nc(C)c(/C(C)=N/NC(=N)N)s2)cc1`, in assay [3], the “Ratio IC50” value is listed as 7.8. Further, the IC50 in [4] worked out at 89 µM; in assay [8], 9.8 µM; in assay [2] it was 11 µM.
With `CC(C)=CCC/C(C)=C/CNCCNC1[C@H]2C[C@@H]3C[C@H](C2)[C@@H](O)[C@H]1C3` (stereo partly drawn), the “Ratio IC50” value in assay [3] is recorded as 2.2. Further, the IC50 was determined as 24 µM in assay [4], 4.2 µM in assay [1], 11 µM in assay [2] and 12 µM with Cell membrane.
As for `NC1C2CC3CC(C2)CC1C3` (stereo not drawn), the values for the IC50 (in assay [1]; in assay [2]; in the assay on Cell membrane) were above 25 µM, above 500 µM and above 1000 µM, respectively.
With `CC(C)=CCC/C(C)=C/CNCCN`, the IC50 is above 25 µM in assay [1], above 500 µM in [2] and 77 µM in the assay with Cell membrane.
Taken in the same sequence, the figures for `CC(C)=CCC/C(C)=C/CN` were above 25 µM, above 500 µM and 307 µM.
For `O=C1C2CC3CC(C2)CC1C3`, the IC50 in assay [1] was above 25 µM; in assay [2] it was above 500 µM; in the assay with Cell membrane, above 1000 µM.
Consider `ON=C1C2CC3CC(C2)CC1C3`, for which the figures for the IC50 (in assay [1]; in assay [2]; in the assay on Cell membrane) were above 25 µM, above 500 µM and above 1000 µM, respectively.
Turning to `CCCCCCCCCCCNCCNC1C2CC3CC(C2)CC1C3` (stereo not drawn), the “Ratio IC50” value in assay [3] amounted to 2.3. Also, the IC50 in assay [4] came to 8.9 µM; in assay [5], 24 µM; in assay [1], 1.9 µM; in [6], 18 µM; in assay [2], 3.9 µM; with Cell membrane it was 0.87 µM.
As for `C/C(=C\CNCCNC1C2CC3CC(C2)CC1C3)CCC(=O)C(C)C` (stereo not drawn), in assay [3], the “Ratio IC50” value was 2.4. For the same compound, the IC50 stood at 63 µM in [4], 14 µM in [1], 26 µM in assay [2] and 15 µM with Cell membrane.
As for `CC(C)CCCC(C)CCNCCNC1C2CC3CC(C2)CC1C3` (stereo not drawn), the “Ratio IC50” value in assay [3] came out at 1. For the same compound, the IC50 was found to be 9.1 µM in assay [4]; 16 µM in assay [5]; 1.7 µM in assay [1]; 15 µM in assay [6]; 9.3 µM in assay [2]; 5.2 µM in the assay with Cell membrane.
Regarding `CC(C)=CCC/C(C)=C/CNCCOC1C2CC3CC(C2)CC1C3` (stereo not drawn), the “Ratio IC50” value in [3] worked out at 9. Also, the IC50 came out at 11 µM in [4]; 0.54 µM in assay [5]; 0.07 µM in [1]; 21 µM in assay [6]; 1.3 µM in [2]; 1.2 µM with Cell membrane.
On to `C/C(=C\CC/C(C)=C/CNCCNC1C2CC3CC(C2)CC1C3)CO` (stereo not drawn), for which, in assay [3], the “Ratio IC50” value is 1.2. The IC50 in assay [4] is 24 µM; in assay [1] it was above 16 µM; in assay [2], 20 µM; in the assay on Cell membrane, 17 µM.
In the case of `CC(C)=CCC/C(C)=C/CCNCCNC1C2CC3CC(C2)CC1C3` (stereo not drawn), the results for the “Ratio IC50” value in [9], in [3] and in [10] were 2, 18 and 2, respectively. In addition, the IC50 in assay [4] stood at 48 µM; in [5] it was 8 µM; in assay [1], 0.82 µM; in [6], 16 µM; in assay [2] it was 2.7 µM; in the assay on Cell membrane, 1.9 µM.
With `CC(C)=CCC/C(C)=C/C=O` [CITRAL], the IC50 in [1] is above 25 µM; in [2], above 500 µM; with Cell membrane it was above 1000 µM.
Take `CC(C)=CCC/C(C)=C/CNCCNC1C2CC3CC1CC(C2)C3O` (stereo not drawn): in assay [3], the “Ratio IC50” value was found to be 1.6. The IC50 in assay [4] is 67 µM; in [1], above 25 µM; in [2], 42 µM; with Cell membrane, 19 µM.
In the case of `CC(C)=CCC/C(C)=C/CNCCNC1C2CC3CC1CC(O)(C3)C2` (stereo not drawn), the “Ratio IC50” value in assay [3] is on record as 1.4. In addition, the IC50 was 57 µM in assay [4], above 25 µM in assay [1], 42 µM in assay [2] and 18 µM in the assay with Cell membrane.
Turning to `CC(C)=CCC/C(C)=C/C(=O)O`, the values for the IC50 (in assay [1]; in assay [2]; in the assay with Cell membrane) were above 25 µM, above 500 µM and above 1000 µM, respectively.

(Values after ChEMBL document CHEMBL5331106, “Investigation into the Mechanism of Action of the Tuberculosis Drug Candidate SQ109 and Its Metabolites and Analogues in Mycobacteria” (J Med Chem, 2023).)
